In PubChem BioAssay (NCI) one finds TGI data, which are given here for seven compounds.

Test systems include OVCAR-5 ovarian; M14 melanoma; NCI/ADR-RES ovarian; COLO 205 colon; SNB-75 CNS; RXF 393 renal; HOP-92 NSCLC; SK-MEL-5 melanoma; OVCAR-8 ovarian; IGROV1 ovarian; NCI-H522 lung; NCI-H226 lung; UO-31 renal; MDA-N; SK-OV-3 ovarian; CAKI-1 renal; HS 578T breast; KM12 colon; PC-3 prostate; HL-60(TB) leukemia.
What all share (test): NCI tumour cell line growth inhibition, 48 h

The structures appear in SMILES notation.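 Briefly, cells in 96-well plates were exposed to five compound concentrations for 48 h, and endpoints were estimated by linear interpolation. The concentration for full growth arrest is given as TGI.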 Bounds are passed on as bounds.

`COc1ccc2[nH]cc(C(=O)C(=O)NC34CC5CC(CC(C5)C3)C4)c2c1`: the TGI is greater than 100 µM in the assay on OVCAR-5 ovarian; greater than 100 µM with M14 melanoma; greater than 100 µM with NCI/ADR-RES ovarian; greater than 100 µM with COLO 205 colon; greater than 73 µM with SNB-75 CNS; 16.8 µM in the assay with RXF 393 renal. The TGI with HOP-92 NSCLC is greater than 100 µM; in the assay with SK-MEL-5 melanoma it was greater than 100 µM; in the assay with OVCAR-8 ovarian, greater than 100 µM; in the assay with IGROV1 ovarian, greater than 100 µM; with NCI-H522 lung it was greater than 100 µM; with NCI-H226 lung, greater than 71.1 µM. Besides, the TGI in the assay on UO-31 renal is greater than 100 µM; with MDA-N, greater than 100 µM; with SK-OV-3 ovarian it was greater than 100 µM; in the assay on CAKI-1 renal, greater than 100 µM; with HS 578T breast, greater than 91.1 µM; in the assay on KM12 colon, greater than 100 µM. Also, in the assay with PC-3 prostate, the TGI was greater than 100 µM.
For the compound `Cc1cc(C)c(O)c(CN2CCN(C(C)C)CCN(C(C)C)CC2)c1`, the TGI in the assay on OVCAR-5 ovarian is greater than 100 µM; with M14 melanoma, 26.2 µM; with NCI/ADR-RES ovarian, greater than 100 µM; in the assay on COLO 205 colon, 60.8 µM; with HL-60(TB) leukemia, 71 µM; with SNB-75 CNS, greater than 100 µM. In addition, the TGI in the assay on RXF 393 renal was 45 µM; in the assay with HOP-92 NSCLC it was 65.2 µM; with OVCAR-8 ovarian it was 94.9 µM; in the assay with IGROV1 ovarian, 18.1 µM; with NCI-H522 lung, 68 µM; with NCI-H226 lung it was greater than 100 µM. Further, the TGI was 82.9 µM with UO-31 renal; 68.3 µM in the assay on MDA-N; greater than 100 µM in the assay on CAKI-1 renal; greater than 100 µM with HS 578T breast; 46.5 µM in the assay with KM12 colon; greater than 100 µM with PC-3 prostate.
In the case of `COc1ccc(C2=C(N)c3c(Cl)cccc3C2=O)cc1`, the TGI in the assay with OVCAR-5 ovarian, in the assay with M14 melanoma, in the assay with NCI/ADR-RES ovarian, in the assay with COLO 205 colon, in the assay with HL-60(TB) leukemia and in the assay on SNB-75 CNS was greater than 100 µM each time. The TGI in the assay on HOP-92 NSCLC, with SK-MEL-5 melanoma, in the assay on OVCAR-8 ovarian, with IGROV1 ovarian, in the assay on NCI-H522 lung and in the assay with NCI-H226 lung was greater than 100 µM each time. The TGI with MDA-N, with SK-OV-3 ovarian, in the assay on CAKI-1 renal, in the assay on HS 578T breast, with KM12 colon and with PC-3 prostate was greater than 100 µM in each case.
Turning to `O=C(/C=C/c1ccc(C(F)(F)F)cc1)c1c([O-])on[n+]1-c1ccccc1`, the TGI worked out at 8.06 µM in the assay on OVCAR-5 ovarian; 6.6 µM with M14 melanoma; 4.18 µM with NCI/ADR-RES ovarian; 4.91 µM with COLO 205 colon; 0.459 µM in the assay with HL-60(TB) leukemia; 5.87 µM in the assay with SNB-75 CNS. Also, the TGI in the assay on RXF 393 renal was 2.68 µM; with HOP-92 NSCLC, 3.06 µM; in the assay on SK-MEL-5 melanoma it was 12.7 µM; in the assay with OVCAR-8 ovarian it was 5.38 µM; in the assay on IGROV1 ovarian, 4.02 µM; in the assay on NCI-H226 lung, greater than 29.9 µM. The TGI in the assay with UO-31 renal was 4 µM; in the assay with MDA-N, 8.69 µM; with SK-OV-3 ovarian, greater than 63.4 µM; with CAKI-1 renal, 0.879 µM; with HS 578T breast it was greater than 32.3 µM; in the assay with KM12 colon it was 7.1 µM. Further, the TGI with PC-3 prostate turned out to be 9.2 µM.
On to `CC(=O)OCC1OC(n2c3c(cc(C#N)c2=S)CCC3)C(OC(C)=O)C(OC(C)=O)C1OC(C)=O` (stereo unspecified), for which the TGI with OVCAR-5 ovarian, in the assay on M14 melanoma, in the assay with NCI/ADR-RES ovarian, with COLO 205 colon, in the assay with HL-60(TB) leukemia and in the assay on SNB-75 CNS was greater than 100 µM in each case. Moreover, the TGI in the assay on RXF 393 renal, in the assay with HOP-92 NSCLC, with SK-MEL-5 melanoma, in the assay with OVCAR-8 ovarian, with IGROV1 ovarian and in the assay with NCI-H522 lung was greater than 100 µM in each case. Also, the TGI in the assay with NCI-H226 lung, in the assay on UO-31 renal, in the assay on MDA-N, with CAKI-1 renal, in the assay with HS 578T breast and in the assay with KM12 colon was greater than 100 µM each time. In the assay on PC-3 prostate, this compound showed a TGI greater than 100 µM.
Consider `CCOC(=O)C1(N)CCc2[nH][nH]c(=O)c2C1` (stereo unspecified), for which the TGI in the assay on OVCAR-5 ovarian, in the assay with M14 melanoma, in the assay with NCI/ADR-RES ovarian, in the assay with COLO 205 colon, in the assay on HL-60(TB) leukemia and with SNB-75 CNS was greater than 100 µM in each case. Moreover, the TGI with HOP-92 NSCLC, with SK-MEL-5 melanoma, with OVCAR-8 ovarian, in the assay on IGROV1 ovarian, in the assay on NCI-H522 lung and with NCI-H226 lung was greater than 100 µM each time. For the same compound, the TGI in the assay with UO-31 renal, with MDA-N, in the assay on SK-OV-3 ovarian, in the assay with CAKI-1 renal, with HS 578T breast and with KM12 colon was greater than 100 µM each time. Further, in the assay on PC-3 prostate, the TGI was greater than 100 µM.
On to `CCOC(=O)Cn1c(=O)c2nc(SC)sc2n(-c2ccccc2)c1=S`, for which the TGI was greater than 100 µM in the assay on OVCAR-5 ovarian; 70.4 µM in the assay with M14 melanoma; greater than 100 µM in the assay on NCI/ADR-RES ovarian; greater than 100 µM in the assay on COLO 205 colon; 59.4 µM in the assay with HL-60(TB) leukemia; 12.5 µM in the assay with SNB-75 CNS. In addition, the TGI with RXF 393 renal is 52.2 µM; in the assay with HOP-92 NSCLC it was 21 µM; in the assay on SK-MEL-5 melanoma, greater than 100 µM; with OVCAR-8 ovarian, 95.8 µM; with IGROV1 ovarian, greater than 100 µM; in the assay with NCI-H522 lung, greater than 100 µM. Further, the TGI is 36.6 µM in the assay with NCI-H226 lung; 15 µM in the assay on UO-31 renal; greater than 100 µM with MDA-N; 60.7 µM with SK-OV-3 ovarian; 34.4 µM in the assay with HS 578T breast; 94.9 µM with KM12 colon. The same compound had a TGI in the assay on PC-3 prostate of 84.4 µM.
